# Data as given in the supplement of paper PMC10307832.
# Tests used:
# Assay in all cases: relative viability (nuclei count vs DMSO), 5 days (fraction); higher = more cells survive
# AZD5582 + Lapatinib = compound: C[C@@H](C(=O)N[C@@H](C1CCCCC1)C(=O)N2CCC[C@H]2C(=O)N[C@@H]3[C@@H](CC4=CC=CC=C34)OCC#CC#CCO[C@@H]5CC6=CC=CC=C6[C@@H]5NC(=O)[C@@H]7CCCN7C(=O)[C@H](C8CCCCC8)NC(=O)[C@H](C)NC)NC [AZD5582] + CS(=O)(=O)CCNCc1ccc(-c2ccc3ncnc(Nc4ccc(OCc5cccc(F)c5)c(Cl)c4)c3c2)o1 [Lapatinib] (partner 2 µM)
# Method in brief: (§1)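 The day after seeding in 1536-well plates, lung cancer cell lines were treated by pin tool with a single drug, or with a fixed anchor-drug dose together with five library-drug doses (not always all listed) in √10 steps. After 5 days, a combined fix-and-stain solution (final 0.05% Triton X-100, 1% formaldehyde, 1 ug/ml Hoechst) was added. Nuclei counted on 4× images gave relative viability as treated counts over vehicle counts, reported as the median of duplicate plates.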
# [1] = compound: Cn1nnc2c(C(N)=O)ncn2c1=O [Temozolomide] + Cc1cc(Nc2cc(N3CCN(C)CC3)nc(Sc3ccc(NC(=O)C4CC4)cc3)n2)n[nH]1 [Tozasertib] (partner 0.1 µM)
# Method in brief: as §1
# AZD5582 + Olaparib = compound: C[C@@H](C(=O)N[C@@H](C1CCCCC1)C(=O)N2CCC[C@H]2C(=O)N[C@@H]3[C@@H](CC4=CC=CC=C34)OCC#CC#CCO[C@@H]5CC6=CC=CC=C6[C@@H]5NC(=O)[C@@H]7CCCN7C(=O)[C@H](C8CCCCC8)NC(=O)[C@H](C)NC)NC [AZD5582] + O=C(c1cc(Cc2n[nH]c(=O)c3ccccc23)ccc1F)N1CCN(C(=O)C2CC2)CC1 [Olaparib] (partner 8 µM)
# Method in brief: as §1
# [2] = compound: Cn1nnc2c(C(N)=O)ncn2c1=O [Temozolomide] + Nc1ncn([C@H]2C[C@H](O)[C@@H](CO)O2)c(=O)n1 [Decitabine] (partner 2 µM)
# Method in brief: as §1
Cell Line,relative viability (AZD5582 + Lapatinib; first compound 0.001581 µM),relative viability (AZD5582 + Lapatinib; first compound 0.005 µM),relative viability (AZD5582 + Lapatinib; first compound 0.01581 µM),relative viability (AZD5582 + Lapatinib; first compound 0.05 µM),relative viability ([1]; first compound 0.2 µM),relative viability ([1]; first compound 0.6325 µM),relative viability ([1]; first compound 2 µM),relative viability ([1]; first compound 6.325 µM),relative viability ([1]; first compound 20 µM),relative viability (AZD5582 + Olaparib; first compound 0.001581 µM),relative viability (AZD5582 + Olaparib; first compound 0.005 µM),relative viability (AZD5582 + Olaparib; first compound 0.01581 µM),relative viability (AZD5582 + Olaparib; first compound 0.05 µM),relative viability ([2]; first compound 0.2 µM),relative viability ([2]; first compound 0.6325 µM),relative viability ([2]; first compound 2 µM),relative viability ([2]; first compound 6.325 µM),relative viability ([2]; first compound 20 µM)
NCI-H2347,0.882,0.944,0.818,0.712,0.496,0.552,0.579,0.544,0.576,0.496,0.624,0.581,0.525,0.613,0.645,0.669,0.595,0.604
NCI-H2405,1.11,1.21,–,1.01,0.716,0.722,0.791,0.72,0.776,0.83,0.875,0.833,0.842,0.773,0.779,0.863,0.699,0.673
NCI-H3122,0.966,1.1,1.05,0.413,0.257,0.482,0.47,0.356,0.46,0.634,0.557,0.641,0.537,0.438,0.484,0.611,0.478,0.378
PC-3 [JPC-3],0.423,0.411,0.448,0.26,0.935,0.945,0.934,0.901,0.431,0.914,0.855,1.09,0.536,0.787,0.854,0.886,0.762,0.498
PC-14,0.301,0.391,0.33,0.223,0.439,0.608,0.558,0.293,0.0992,0.183,0.148,0.306,0.136,0.27,0.241,0.245,0.21,0.182
RERF-LC-KJ,0.732,0.748,0.8,0.83,0.535,0.465,0.538,0.504,0.499,–,–,0.852,0.691,0.738,0.78,0.733,0.617,0.712
SK-LU-1,0.645,0.639,0.859,0.317,0.354,0.326,0.335,0.273,0.235,0.353,0.274,0.466,0.142,0.683,0.671,0.575,0.458,0.477
SK-MES-1,0.492,0.648,0.455,0.571,1.02,0.919,0.985,0.939,0.973,0.653,0.515,0.792,0.605,0.417,0.391,0.362,0.335,0.368
SW 1573,0.954,1.28,1.24,1.09,0.298,0.177,0.162,0.207,0.169,0.376,0.523,0.628,0.684,0.589,0.535,0.577,0.456,0.462
UMC-11,0.89,0.976,0.851,1.01,0.204,0.198,0.214,0.198,0.191,0.369,0.375,0.399,0.381,0.462,0.628,0.614,0.524,0.521
